Test results: US20130102595A1 (Curis, Inc., priority 2011, published 2013)

Key:
[1] = system: HDACs (HeLa cell nuclear extracts); test: HDAC enzymatic activity, Biomol Color de Lys system; type: biochemical; conditions: 1 hour, 25° C.
Summary of the method: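 IC50 from sigmoidal fit of developer-terminated fluorescence (ex 350-380/em 440-460 nm). Reaction: 1 h at room temperature (25 °C), HeLa nuclear extract as HDAC source, artificial substrate, buffer of 50 mM Tris/Cl pH 8.0 with 137 mM NaCl, 2.7 mM KCl and 1 mM MgCl2.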

[2] = molecular target: T1, PI3Kα (p110α/p85α) (Homo sapiens, UniProt P42336); test: PI3Kα ADP-Glo assay; type: biochemical; conditions: 20 μM PIP2, 10 μM ATP, 30 minutes
T1 construct: GST (N); made in house; host or cells: Baculovirus-infected Sf9 cells
Summary of the method: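 Luminescent ADP-Glo detection, after depletion of residual ATP, quantified ADP made by PI3Kα phosphorylating 20 μM PIP2 at 10 μM ATP. The kinase step ran 30 min at room temperature in HEPES pH 7.4 with MgCl2, DTT and orthovanadate, using baculovirus/Sf9-expressed full-length p110α/p85α complex.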

[3] = molecular target: T2, mTor serine/threonine protein kinase (Homo sapiens, UniProt P42345); test: mTor kinase radioisotope assay; type: biochemical; conditions: 70 uM ATP, 40 minutes; read-out: m-TOR IC50
T2 construct: FLAG; made in house; host or cells: Baculovirus expression system in Sf21 cells
Description: (F) an In Vitro Assay which-Determines the Ability of a Test Compound to Inhibit mTor Serine/Threonine Protein Kinase.
The ability of compounds to inhibit mTor activity was assayed using standard radioisotope assay for kinase. Briefly, FLAG-tagged, recombinant full-length human mTor (GenBank accession No. NM_004958) was expressed using baculovirus expression system in Sf21 cells and purified using antibody affinity column. Purified enzyme was incubated with c-terminal fragment of p70S6K as it's substrate in the presence of ATP. p33 ATP tracers were included in the assay to monitor the enzyme activity. Final assay condition was with 50 mM HEPES pH 7.5, 1 mM EGTA, 0.01% Tween 20, 2 mg/ml substrate, 3 mM Manganese Chloride and 70 uM of ATP and was carried out at room temperature for 40 minutes. The reaction was then stopped by the addition of 3% phosphoric acid solution. 10 ul of the reaction was spotted onto a P30 filtermat and washed three times for 5 minutes in 75 mM phosphoric acid and once in methanol prior to drying and scintillation counting. Different concentrations of compounds were added to reaction to assess the activity of compounds to inhibit mTor kinase. IC50 was calculated using Prism software with sigmoidal dose-response curve fitting.

[4] = system: HCT116; test: Cell proliferation assay (CellTiter-Glo); type: cell-based; conditions: Homo sapiens, HCT-116; Colon; 72 hours, 0.5% fetal bovine serum; read-out: antiproliferative activity IC50, HCT116
Description: (§1) Cell Proliferation Assay:
(§2) Cancer cell lines were plated at 5,000 to 10,000 per well in 96-well flat bottomed plates with various concentration of compounds. The cells were incubated with compounds for 72 hours in the presence of 0.5% of fetal bovine serum. Growth inhibition was accessed by adenosine triphosphate (ATP) content assay using Promega CellTiter-Glo kit. Promega CellTiter-Glo kit is an ATP monitoring system based on firefly luciferase. Briefly, 16 μl of mammalian cell lysis and substrate solution was added to 84 μl of culture medium per well to lyse the cells and stabilize the ATP. The mixture was shaken and incubated for 30 minutes and subsequently the luminescence was measured.

[5] = system: Calu6; test: Cell proliferation assay (CellTiter-Glo); type: cell-based; conditions: Homo sapiens, Calu-6; NSCLC; 72 hours, 0.5% fetal bovine serum; read-out: antiproliferative activity IC50, Calu6
Description: as §1, §2

[6] = system: MDA-MB-231; test: Cell proliferation assay (CellTiter-Glo); type: cell-based; conditions: Homo sapiens, Breast, 72 hours, 0.5% fetal bovine serum, read-out: antiproliferative activity IC50, MDA-MB-231
Description: as §1, §2

[7] = system: WiDr; test: Cell proliferation assay (CellTiter-Glo); type: cell-based; conditions: Homo sapiens, Colon, 72 hours, 0.5% fetal bovine serum, read-out: antiproliferative activity IC50, WiDr
Description: as §1, §2

[8] = system: CaPan2; test: Cell proliferation assay (CellTiter-Glo); type: cell-based; conditions: Homo sapiens, Capan-2; Pancreas; 72 hours, 0.5% fetal bovine serum; read-out: antiproliferative activity IC50, CaPan2
Description: as §1, §2

[9] = system: MiaPaca1; test: Cell proliferation assay (CellTiter-Glo); type: cell-based; conditions: Pancreas; 72 hours, 0.5% fetal bovine serum; read-out: antiproliferative activity IC50, MiaPaca1
Description: as §1, §2

[10] = system: PANC-1; test: Cell proliferation assay (CellTiter-Glo); type: cell-based; conditions: Homo sapiens, Pancreas, 72 hours, 0.5% fetal bovine serum, read-out: antiproliferative activity IC50, PANC-1
Description: as §1, §2

[11] = system: SW1990; test: Cell proliferation assay (CellTiter-Glo); type: cell-based; conditions: Homo sapiens, Pancreas, 72 hours, 0.5% fetal bovine serum, read-out: antiproliferative activity IC50, SW1990
Description: as §1, §2

T1 sequence (P42336 whole entry): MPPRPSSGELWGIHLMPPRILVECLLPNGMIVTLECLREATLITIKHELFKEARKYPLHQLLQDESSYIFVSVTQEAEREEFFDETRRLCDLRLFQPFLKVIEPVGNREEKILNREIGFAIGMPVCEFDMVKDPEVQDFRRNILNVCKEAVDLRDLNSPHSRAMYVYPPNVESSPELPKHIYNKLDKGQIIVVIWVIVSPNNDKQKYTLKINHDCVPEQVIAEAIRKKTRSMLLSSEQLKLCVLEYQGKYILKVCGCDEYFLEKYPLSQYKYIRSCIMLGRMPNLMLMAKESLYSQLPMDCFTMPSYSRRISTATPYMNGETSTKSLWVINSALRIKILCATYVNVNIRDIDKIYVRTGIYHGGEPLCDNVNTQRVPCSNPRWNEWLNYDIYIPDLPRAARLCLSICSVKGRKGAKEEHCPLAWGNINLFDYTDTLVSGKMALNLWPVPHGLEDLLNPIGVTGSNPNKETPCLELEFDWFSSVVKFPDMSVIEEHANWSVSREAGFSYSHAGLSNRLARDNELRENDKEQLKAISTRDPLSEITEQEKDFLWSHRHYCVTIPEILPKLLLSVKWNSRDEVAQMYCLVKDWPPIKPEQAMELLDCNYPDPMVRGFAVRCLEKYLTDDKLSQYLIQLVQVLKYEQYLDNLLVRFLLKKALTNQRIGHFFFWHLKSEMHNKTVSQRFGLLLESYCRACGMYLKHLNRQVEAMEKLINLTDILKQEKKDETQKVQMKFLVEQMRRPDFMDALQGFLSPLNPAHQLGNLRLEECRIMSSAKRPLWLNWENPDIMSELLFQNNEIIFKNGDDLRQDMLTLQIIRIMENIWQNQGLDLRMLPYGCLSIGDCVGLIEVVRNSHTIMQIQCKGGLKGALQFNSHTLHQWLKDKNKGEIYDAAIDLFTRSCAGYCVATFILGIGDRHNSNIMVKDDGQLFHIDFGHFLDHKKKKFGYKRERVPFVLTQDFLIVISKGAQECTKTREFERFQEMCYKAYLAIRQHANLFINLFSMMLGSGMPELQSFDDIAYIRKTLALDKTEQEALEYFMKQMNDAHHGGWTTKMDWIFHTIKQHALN
T1 sequence (P27986 whole entry partner): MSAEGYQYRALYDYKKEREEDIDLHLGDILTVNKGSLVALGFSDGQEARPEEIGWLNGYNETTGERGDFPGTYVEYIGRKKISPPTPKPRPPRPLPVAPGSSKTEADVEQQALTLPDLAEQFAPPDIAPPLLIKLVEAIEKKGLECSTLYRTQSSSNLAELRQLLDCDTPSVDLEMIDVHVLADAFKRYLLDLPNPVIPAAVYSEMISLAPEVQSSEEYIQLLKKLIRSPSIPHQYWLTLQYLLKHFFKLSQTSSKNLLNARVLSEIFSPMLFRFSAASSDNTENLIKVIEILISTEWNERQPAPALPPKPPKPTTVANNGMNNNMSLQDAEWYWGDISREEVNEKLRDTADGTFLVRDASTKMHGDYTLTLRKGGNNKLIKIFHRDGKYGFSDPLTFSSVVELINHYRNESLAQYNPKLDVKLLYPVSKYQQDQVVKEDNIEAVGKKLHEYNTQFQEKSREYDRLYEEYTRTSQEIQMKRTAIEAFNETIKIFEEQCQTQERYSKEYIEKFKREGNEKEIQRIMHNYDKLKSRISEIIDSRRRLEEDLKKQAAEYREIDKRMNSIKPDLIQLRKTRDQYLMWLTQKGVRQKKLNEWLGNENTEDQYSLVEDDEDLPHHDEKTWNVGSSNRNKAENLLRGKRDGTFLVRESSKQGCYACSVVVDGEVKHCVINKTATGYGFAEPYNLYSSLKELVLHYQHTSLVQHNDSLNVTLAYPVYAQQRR

SMILES | IC50 [1] | IC50 [2] | IC50 [3] | melting point | IC50 [4] | IC50 [5] | IC50 [6] | IC50 [7] | IC50 [8] | IC50 [9] | IC50 [10] | IC50 [11]
CN(Cc1cc2nc(-c3cc(F)cc4[nH]ncc34)nc(N3CCOCC3)c2s1)c1ncc(C(=O)NO)cn1 [Compound 69, 2-(((2-(6-fluoro-1H-indazol-4-yl)-4-morpholinothieno[3,2-d]pyrimidin-6-yl)methyl)(methyl)amino)-N-hydroxypyrimidine-5-carboxamide] | < 100 nM | < 100 nM | 1000 to 10000 nM | 215 to 217 °C |  |  |  |  |  |  |  | 
CN(CCCC(=O)NO)Cc1cc2nc(-c3cccc4[nH]ncc34)nc(N3CCOCC3)c2s1 [Compound 101, 4-(((2-(1H-indazol-4-yl)-4-morpholinothieno[3,2-d]pyrimidin-6-yl)methyl)(methyl)amino)-N-hydroxybutanamide] | > 10000 nM | 100 to 1000 nM | 100 to 1000 nM | 115 to 118 °C |  |  |  |  |  |  |  | 
CN(CCCCC(=O)NO)Cc1cc2nc(-c3cccc4[nH]ncc34)nc(N3CCOCC3)c2s1 [Compound 102, 5-(((2-(1H-indazol-4-yl)-4-morpholinothieno[3,2-d]pyrimidin-6-yl)methyl)(methyl)amino)-N-hydroxypentanamide] | 100 to 1000 nM | 100 to 1000 nM | 100 to 1000 nM | 120 to 122 °C |  |  |  |  |  |  |  | 
CN(Cc1cc2nc(-c3cccnc3)nc(N3CCOCC3)c2s1)c1ncc(C(=O)NO)cn1 [Compound 109, N-hydroxy-2-(methyl((4-morpholino-2-(pyridin-3-yl)thieno[3,2-d]pyrimidin-6-yl)methyl)amino)pyrimidine-5-carboxamide] | < 100 nM | < 100 nM | 100 to 1000 nM | 160 to 164 °C |  |  |  |  |  |  |  | 
CN(C)c1ncc(-c2nc(N3CCOCC3)c3sc(CN(C)c4ncc(C(=O)NO)cn4)cc3n2)cn1 [Compound 117, 2-(((2-(2-(dimethylamino)pyrimidin-5-yl)-4-morpholinothieno[3,2-d]pyrimidin-6-yl)methyl)(methyl)amino)-N-hydroxypyrimidine-5-carboxamide] | < 100 nM | < 100 nM | 1000 to 10000 nM | 200 to 206 °C |  |  |  |  |  |  |  | 
CCc1ncc(-c2nc(N3CCOCC3)c3sc(CN(C)c4ncc(C(=O)NO)cn4)cc3n2)cn1 [Compound 121, 2-(((2-(2-ethylpyrimidin-5-yl)-4-morpholinothieno[3,2-d]pyrimidin-6-yl)methyl)(methyl)amino)-N-hydroxypyrimidine-5-carboxamide] | < 100 nM | < 100 nM | 1000 to 10000 nM | 153 to 156 °C |  |  |  |  |  |  |  | 
Cc1nc(N)ncc1-c1nc(N2CCOCC2)c2sc(CN(C)c3ncc(C(=O)NO)cn3)cc2n1 [Compound 125, 2-(((2-(2-amino-4-methylpyrimidin-5-yl)-4-morpholinothieno[3,2-d]pyrimidin-6-yl)methyl)(methyl)amino)-N-hydroxypyrimidine-5-carboxamide] | < 100 nM | < 100 nM |  | 195 to 198 °C | 10 to 100 nM |  |  |  |  |  |  | 
CN(Cc1cc2nc(-c3cccc(O)c3)nc(N3CCOCC3)c2s1)c1ncc(C(=O)NO)cn1 [Compound 132, N-hydroxy-2-(((2-(3-hydroxyphenyl)-4-morpholinothieno[3,2-d]pyrimidin-6-yl)methyl)(methyl)amino)pyrimidine-5-carboxamide] | < 100 nM | < 100 nM | < 100 nM | 175 to 181 °C |  | 10 to 100 nM | 10 to 100 nM | 100 to 1000 nM |  |  |  | 
CC(=O)Nc1ccc(-c2nc(N3CCOCC3)c3sc(CN(C)c4ncc(C(=O)NO)cn4)cc3n2)cc1 [Compound 157, 2-(((2-(4-acetamidophenyl)-4-morpholinothieno[3,2-d]pyrimidin-6-yl)methyl)(methyl)amino)-N-hydroxypyrimidine-5-carboxamide] | < 100 nM | < 100 nM | < 100 nM | 228 to 230 °C |  | 10 to 100 nM |  | 100 to 1000 nM |  |  |  | 
Cc1nc2ccc(-c3nc(N4CCOCC4)c4sc(CN(C)c5ncc(C(=O)NO)cn5)cc4n3)cc2[nH]1 [Compound 199, N-hydroxy-2-(methyl((2-(2-methyl-3H-benzo[d]imidazol-5-yl)-4-morpholinothieno[3,2-d]pyrimidin-6-yl)methyl)amino)pyrimidine-5-carboxamide] | < 100 nM | < 100 nM |  | 230 to 233 °C |  | 100 to 1000 nM | 10 to 100 nM | 10 to 100 nM | 1000 to 10000 nM | 10 to 100 nM | 100 to 1000 nM | 10 to 100 nM
CN(Cc1cc2nc(-c3cnn(C)c3)nc(N3CCOCC3)c2s1)c1ncc(C(=O)NO)cn1 [Compound 246, N-Hydroxy-2-(methyl((2-(1-methyl-1H-pyrazol-4-yl)-4-morpholinothieno[3,2-d]pyrimidin-6-yl)methyl)amino)pyrimidine-5-carboxamide] | < 100 nM | 100 to 1000 nM | > 10000 nM | 164 to 169 °C |  |  |  |  |  |  |  | 
CN(Cc1cc2nc(-c3ccc(OCCO)nc3)nc(N3CCOCC3)c2s1)c1ncc(C(=O)NO)cn1 [Compound 256, N-Hydroxy-2-(((2-(6-(2-hydroxyethoxy)pyridin-3-yl)-4-morpholinothieno[3,2-d]pyrimidin-6-yl)methyl)(methyl)amino)pyrimidine-5-carboxamide] | < 100 nM | < 100 nM | > 10000 nM | 143 to 145 °C |  |  |  |  |  |  |  | 
COc1ncc(-c2nc(N3CCOCC3)c3sc(CN(C)c4ncc(C(=O)NO)cn4)cc3n2)cn1 [Compound 261, N-Hydroxy-2-(((2-(2-methoxypyrimidin-5-yl)-4-morpholinothieno[3,2-d]pyrimidin-6-yl)methyl)(methyl)amino)pyrimidine-5-carboxamide] | < 100 nM | < 100 nM |  | 215 to 220 °C |  |  | 10 to 100 nM |  |  |  |  | 
CN(Cc1cc2nc(-c3ccc(N)c(CO)c3)nc(N3CCOCC3)c2s1)c1ncc(C(=O)NO)cn1 [Compound 285, 2-(((2-(4-Amino-3-(hydroxymethyl)phenyl)-4-morpholinothieno[3,2-d]pyrimidin-6-yl)methyl)(methyl)amino)-N-hydroxypyrimidine-5-carboxamide] | < 100 nM | < 100 nM | < 100 nM | 195 to 200 °C |  |  |  |  |  |  |  | 
C[C@@H](O)c1cccc(-c2nc(N3CCOCC3)c3sc(CN(C)c4ncc(C(=O)NO)cn4)cc3n2)c1 [Compound 297, (R)—N-Hydroxy-2-(((2-(3-(1-hydroxyethyl)phenyl)-4-morpholinothieno[3,2-d]pyrimidin-6-yl)methyl)(methyl)amino)pyrimidine-5-carboxamide] | < 100 nM | 100 to 1000 nM | 100 to 1000 nM | 169 to 173 °C |  |  |  |  |  |  |  | 
CN(Cc1cc2nc(-c3ccc4[nH]c(C(F)(F)F)nc4c3)nc(N3CCOCC3)c2s1)c1ncc(C(=O)NO)cn1 [Compound 318] | < 100 nM | < 100 nM | 100 to 1000 nM | > 300 °C |  |  |  |  |  |  |  | 
